The source made the active and inactive calls. How the calls were made is not given here.
Biological target: G-protein coupled receptor 151 (Homo sapiens) (UniProt Q8TDV0)
Experiment: GPR151 activator potency, dose response, cell-based (AID 1508610)
Conditions: cell-based GPR151 activation reporter

G-protein coupled receptor 151 (Homo sapiens), sequence (Q8TDV0 whole entry, looked up): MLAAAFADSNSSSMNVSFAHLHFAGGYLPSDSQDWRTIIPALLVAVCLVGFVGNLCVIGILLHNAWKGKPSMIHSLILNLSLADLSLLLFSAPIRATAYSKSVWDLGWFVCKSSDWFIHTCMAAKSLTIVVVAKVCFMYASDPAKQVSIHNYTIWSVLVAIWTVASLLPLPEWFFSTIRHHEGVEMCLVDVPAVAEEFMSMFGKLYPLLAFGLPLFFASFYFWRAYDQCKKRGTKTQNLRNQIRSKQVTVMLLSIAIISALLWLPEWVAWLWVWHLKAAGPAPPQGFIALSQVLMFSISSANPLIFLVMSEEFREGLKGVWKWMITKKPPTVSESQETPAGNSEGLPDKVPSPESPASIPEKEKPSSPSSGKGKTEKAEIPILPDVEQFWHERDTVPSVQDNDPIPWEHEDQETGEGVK

SMILES | EC50
COc1cccc(-c2nc(-c3ccccn3)no2)c1 | > 37.5 µM (inactive)
Cn1ncc2c(NCCc3ccc(Cl)cc3Cl)ncnc21 | > 27.8 µM (inactive)
CCn1c(SCC(=O)c2ccccc2)nnc1C(C)C | > 28 µM (inactive)
O=C(O)c1cc(N=Cc2ccco2)ccc1O | > 28 µM (inactive)
CCOc1ccc(NS(=O)(=O)c2ccc3c(c2)n(C)c(=O)n3C)cc1 | > 28 µM (inactive)
O=C(Nc1ccc(NC(=O)c2cccc3c(Br)cccc23)cc1)c1ccco1 | > 24.4 µM (inactive)
O=C1c2ccccc2C(Nc2ccc(Cl)cc2)N1c1cccnc1 (centres undefined) | > 28 µM (inactive)
COC(=O)c1ccc(Nc2ncnc3c2cnn3-c2ccc(C)cc2C)cc1 | 0.00158 µM
O=C(O)c1ccc(COc2cccc(CO)c2)cc1 | > 28 µM (inactive)
Cc1ccc(NC(=O)C(CC(=O)O)C2CCCO2)cc1 (centres undefined) | > 28 µM (inactive)
CCc1ccccc1NC(=S)N(CCc1ccc(OC)c(OC)c1)Cc1cccnc1 | > 24.3 µM (inactive)
CN1C(=O)C(=Cc2nc3ccccc3c(=O)n2-c2ccc([N+](=O)[O-])cc2)c2cc(Br)ccc21 | > 19.1 µM (inactive)
NC(=O)c1ccsc1NC(=O)/C=C/c1ccccc1 | > 26.7 µM (inactive)
Cc1cccc(C)c1-n1c(=S)sc2c(=O)n(-c3cccc(Cl)c3)c(SCC#N)nc21 | > 21.8 µM (inactive)
Cc1ccsc1C(=O)Nc1nc2ccc(S(C)(=O)=O)cc2s1 | > 28.6 µM (inactive)
COCCn1c(C)cc(C(=O)COC(=O)c2cccc(O)c2)c1C | > 30.4 µM (inactive)
COc1ccccc1N=C1SC(CC(=O)Nc2cccc([N+](=O)[O-])c2)C(=O)N1C (centres undefined) | > 28 µM (inactive)
COC(=O)c1ccc(C2C(C#N)=C(N)Oc3n[nH]c(C45CC6CC(CC(C6)C4)C5)c32)cc1 (centres undefined) | inactive
[O-]/[N+](=C\c1ccncc1)c1ccc(Cl)cc1 | > 28.9 µM (inactive)
CCC(C)c1ccccc1NC(=S)NC(C)=O (centres undefined) | > 28 µM (inactive)
NN1C(=O)c2ccccc2NC1C1CC=CCC1 (centres undefined) | > 28 µM (inactive)
CCOC(=O)N1CCN(C(=S)Nc2ccc(C)cc2)CC1 | > 28 µM (inactive)
O=C(O)C1CCCN(c2ncnc3scc(-c4ccccc4)c23)C1 (centres undefined) | > 29.7 µM (inactive)
O=C(Nc1ncc([N+](=O)[O-])s1)c1ccc(Br)cc1F | > 27.5 µM (inactive)
O=C(O)c1cccc(COc2ccc3ccccc3c2)c1 | > 28 µM (inactive)

SMILES | EC50
COc1cccc(-c2ccc(SCC(=O)Nc3cccc(NC(C)=O)c3)nn2)c1 | > 27.4 µM (inactive)
Cc1nccc2[nH]c(=O)c(C(=O)NC3CCN(Cc4ccccc4)CC3)cc12 | > 28 µM (inactive)
CCOCCCNC(=O)CSc1ncccc1-c1nc2cc(C)c(C)cc2[nH]1 | > 28 µM (inactive)
N#Cc1sc(NC(=O)c2ccc(F)c(F)c2)nc1Cl | > 28 µM (inactive)
Cc1ccc(Nc2ncnc3sc(C)c(C)c23)cc1F | > 31.6 µM (inactive)
Cn1c(COc2ccc(Cl)cc2)nnc1SCC(=O)NCC(F)(F)F | > 28.4 µM (inactive)
O=C(Nc1c2c(nn1-c1cccc(Cl)c1)CSC2)c1ccccc1Br | > 20.9 µM (inactive)
Cc1c(C(=O)Nc2cc(Sc3ccc(F)cc3)cc([N+](=O)[O-])c2)sc2ncn(Cc3ccccc3F)c(=O)c12 | > 20.2 µM (inactive)
N#Cc1nc2[nH]c(-c3ccccc3)cc(=O)n2c1C#N | > 30 µM (inactive)
COc1ccc(CNC(=O)CCCn2cccc2)cc1 | > 28 µM (inactive)
O=C(O)c1cccc(COc2ccc(CO)cc2Cl)c1 | > 28 µM (inactive)
Cc1ccc(NC(=O)/C(=C/c2cccc([N+](=O)[O-])c2)NC(=O)c2cccs2)c(Br)c1 | > 18.7 µM (inactive)
S=c1nc2c(n[nH]1)c1ccccc1n2CCc1ccccc1 | > 33 µM (inactive)
COc1ccc(-n2nc3c(c2NC(=O)CCC2CCCC2)CS(=O)(=O)C3)cc1 | > 28.2 µM (inactive)
CCOC(=O)c1cnc2c(OC)cccc2c1NC1CCCCC1 | inactive
CCCCNC(=O)/C(=C/c1ccccc1)NC(=O)/C=C/c1ccco1 | > 28 µM (inactive)
COc1ccc(-c2ccc(C(N)=O)s2)cc1 | > 28.1 µM (inactive)
CC(C)(C)OC(=O)NNC(=O)/C=C/c1cc(Br)ccc1F | > 28.1 µM (inactive)
COc1ccc2o/c(=N\NC(=O)c3ccccc3Nc3ccccc3)c(C(N)=O)cc2c1 | > 28 µM (inactive)
C/C(=N\NC(=S)NCc1ccco1)c1cccc([N+](=O)[O-])c1 | > 28.2 µM (inactive)
N=C1c2ccccc2CN1CC(=O)c1ccccc1 | > 27.4 µM (inactive)
O=C(O)c1cccc(COc2cccc(Cl)c2)c1 | > 28 µM (inactive)
O=C(CCn1nc(-c2ccccc2)c2ccccc2c1=O)NCc1ccccc1 | > 28 µM (inactive)
Cc1n[nH]c(C)c1S(=O)(=O)NCc1ccc(F)cc1 | > 28 µM (inactive)
O=C(CSc1nc(-c2ccccc2)cs1)Nc1ccccc1 | > 28 µM (inactive)

SMILES | EC50
CC(=O)OCC1=C(C(=O)O)N2C(=O)[C@@H](NC(=O)Cc3cccs3)[C@H]2SC1 | > 28 µM (inactive)
CCOc1ccc(-n2c(SCC(=O)Nc3ccccc3CC)nc3n[nH]c(C)c3c2=N)cc1 | > 27.1 µM (inactive)
COc1ccc(OC(C)C(=O)Nc2cc(C)ccc2C)cc1 (centres undefined) | > 32 µM (inactive)
O=C(NC1CC1)c1ccc2nc(-c3csc4ccccc34)sc2c1 | > 28.1 µM (inactive)
COc1ccc(-c2cn3cc(C(=O)O)ccc3n2)cc1 | > 29.2 µM (inactive)
O=C(Nc1ncc(C(O)(C(F)(F)F)C(F)(F)F)s1)c1ccccc1Cl | > 30.5 µM (inactive)
Cc1cccc(N2CCN(C(=O)c3ccc(S(=O)(=O)c4ccc(F)cc4)c([N+](=O)[O-])c3)C(C)C2)c1 (centres undefined) | > 23.3 µM (inactive)
COc1ccc(-c2ccc(C(=O)NCCO)s2)cn1 | > 27.9 µM (inactive)
Cc1ccccc1C(=O)Nc1noc2ccccc12 | > 28 µM (inactive)
CC1=NCCc2c1[nH]c1cc(O)ccc21 | > 28 µM (inactive)
CCC(C)NC(=O)c1cc(=O)[nH]c2ccc(Br)cc12 (centres undefined) | 0.867 µM
COc1ccc(-c2ccc(C(=O)Nc3ccccc3)s2)cn1 | > 28 µM (inactive)
Cc1nc(/C=C/c2ccc(Cl)cc2)sc1C(=O)O | > 32 µM (inactive)
COC(=O)C(NC(=O)c1cccc(Cl)c1)(Nc1ccc(Cl)cn1)C(F)(F)F (centres undefined) | > 28 µM (inactive)
O=C(NN=C1CCCCC1)C(O)(c1ccccc1)c1ccccc1 | > 28 µM (inactive)
Cc1c(N=Nc2c(O)[nH]c(=S)[nH]c2=O)c(=O)n(-c2ccccc2)n1C | > 28 µM (inactive)
COc1ccc(-n2nc3c(c2NC(=O)c2c(F)cccc2F)CS(=O)(=O)C3)cc1 | > 31.2 µM (inactive)
Cn1c(=O)c(=O)n(C)c2cc(S(=O)(=O)N3CCN(C(=O)c4ccco4)CC3)ccc21 | > 28 µM (inactive)
O=C(O)C1CCCN(c2nn3cc(-c4ccc(F)cc4)nc3s2)C1 (centres undefined) | > 28 µM (inactive)
O=C(Nc1ccc(-c2cccc(F)c2)cc1)C1CCCN(C(=O)C2CCOCC2)C1 (centres undefined) | > 28 µM (inactive)
CC[C@@H](C(=O)[C@@H](C)[C@@H](O)[C@H](C)CCc1ccc(C)c(O)c1C(=O)O)[C@H]1O[C@](CC)([C@H]2CC[C@](O)(CC)[C@H](C)O2)C[C@@H]1C | > 28 µM (inactive)
COc1ccc(-c2nnc(/C=C/c3cccs3)o2)cc1 | > 27.6 µM (inactive)
CCC[C@@H]1NC(=O)[C@@H]2C[C@H](NCc3cc(C)ccc3F)CN2C1=O | > 28 µM (inactive)
CCOC(=O)c1ccc(NC(=O)CSc2cn(Cc3ccccc3Cl)c3ccccc23)cc1 | > 24.2 µM (inactive)
COc1ccc(-c2ccc(C(=O)Nc3ccc(NC(C)=O)cc3)s2)cc1 | > 26.6 µM (inactive)

SMILES | EC50
Cn1c(=O)[nH]c2nnc(-c3ccc(F)cc3)nc2c1=O | > 28 µM (inactive)
O=C(COc1ccccc1Cl)Nc1nccs1 | > 39.1 µM (inactive)
C/C(=C\c1ccccc1)C(=O)Nc1ccccc1C(=O)O | > 31.9 µM (inactive)
CCOc1ccc(-c2csc(/C(C#N)=C/c3ccccc3OCC)n2)cc1 | > 25.5 µM (inactive)
CC(=O)Oc1ccccc1C(=O)Nc1ncc([N+](=O)[O-])s1 | > 28 µM (inactive)
O=S(=O)(O)c1ccc2nc(-c3ccccc3)[nH]c2c1 | > 28 µM (inactive)
O=C(CN1C(=O)C(c2ccccc2)=NC12CCCC2)Nc1ccccc1 | > 28 µM (inactive)
C=CCN1C(=O)/C(=C/c2ccc(OCC(=O)O)cc2)S/C1=N/c1nccs1 | > 28 µM (inactive)
CC(C)NC(=O)c1cnc2scc(-c3ccccc3)n2c1=O | > 28 µM (inactive)
CCOc1cc(/C=c2/sc3n(c2=O)CCN=3)ccc1O | > 40 µM (inactive)
O=C(NCc1ccc(Cl)cc1)C1C2C=CC3(CN(Cc4ccccc4)C(=O)C13)O2 (centres undefined) | > 25.1 µM (inactive)
N=c1sc2c(n1CC(=O)c1ccccc1)CCCC2 | > 27 µM (inactive)
CCC(=O)Oc1ccc2cc(-c3ccc(OC)c(OC)c3)c(=O)oc2c1 | > 28.5 µM (inactive)
CCOC(=O)C1=C(C)N=c2s/c(=C\c3ccc(-c4ccccc4C(=O)O)o3)c(=O)n2C1c1ccccc1OC (centres undefined) | > 25.1 µM (inactive)
Cn1c(N)c(S(=O)(=O)N2CCN(c3ccccc3Cl)CC2)c(=O)n(C)c1=O | > 28.4 µM (inactive)
c1ccc(Oc2nc(NC3CC3)c3ncn(-c4ccsc4)c3n2)cc1 | inactive
O=C(NCCOc1ccccc1)c1ccc(-c2ccc(N3CCOCC3)nc2)s1 | > 33 µM (inactive)
COC(=O)CN1C(=O)S/C(=C\c2cc(Br)c(OC)c(OC)c2)C1=O | > 28 µM (inactive)
O=C(O)CC1c2ccccc2CCN1S(=O)(=O)c1ccc(Cl)cc1 (centres undefined) | inactive
COc1ccc(C(=O)Nc2noc3ccccc23)cc1 | > 28 µM (inactive)
O=C(Nc1ccc(Br)cn1)c1ccc(N2CCCCC2)c([N+](=O)[O-])c1 | > 28 µM (inactive)
COc1ccc(N=C2SC(CC(=O)Nc3ccc(OC)cc3OC)C(=O)N2C)cc1 (centres undefined) | 0.00244 µM
COC(=O)C(NC(=O)c1ccc(Br)cc1)c1ccccc1 (centres undefined) | > 28 µM (inactive)
CON(C)C(=O)c1ccc(OCc2ccnc(Cl)c2)cc1 | > 28 µM (inactive)

From PubChem BioAssay AID1508610 (The Scripps Research Institute Molecular Screening Center, 2020)
